Earlier results as cited in patent publication US20050106263A1, “Green tea, multivitamin, mineral and herb based hair and male facial skin formulas” (priority 2003, published 2005).

How the values were obtained:
[1] = in vivo
hair loss = conditions: comparison drug, general statement

Row | SMILES | oral bioavailability [1] | effect on front hairline (hair loss) | persistence of effect after use is stopped (hair loss)
1 | O=C(O[C@@H]1Cc2c(O)cc(O)cc2O[C@@H]1c1cc(O)c(O)c(O)c1)c1cc(O)c(O)c(O)c1 [EGCG, epigallocatchin-3-gallate] | low oral bioavailability |  | 
2 | Nc1cc(N2CCCCC2)nc(N)[n+]1[O-] [Rogaine] |  | does not work well on the front hairline | must be continually used or its effects will not only cease but will reverse
